Assay results: ChEMBL document CHEMBL1146307, “Exploring the active site of phenylethanolamine N-methyltransferase with 1,2,3,4-tetrahydrobenz[h]isoquinoline inhibitors” (Bioorg Med Chem, 2007)

Target: T1, Adrenergic receptor alpha-2 (Rattus norvegicus, UniProt P22086+P19328+P22909)
T1 sequence (P22086 whole entry): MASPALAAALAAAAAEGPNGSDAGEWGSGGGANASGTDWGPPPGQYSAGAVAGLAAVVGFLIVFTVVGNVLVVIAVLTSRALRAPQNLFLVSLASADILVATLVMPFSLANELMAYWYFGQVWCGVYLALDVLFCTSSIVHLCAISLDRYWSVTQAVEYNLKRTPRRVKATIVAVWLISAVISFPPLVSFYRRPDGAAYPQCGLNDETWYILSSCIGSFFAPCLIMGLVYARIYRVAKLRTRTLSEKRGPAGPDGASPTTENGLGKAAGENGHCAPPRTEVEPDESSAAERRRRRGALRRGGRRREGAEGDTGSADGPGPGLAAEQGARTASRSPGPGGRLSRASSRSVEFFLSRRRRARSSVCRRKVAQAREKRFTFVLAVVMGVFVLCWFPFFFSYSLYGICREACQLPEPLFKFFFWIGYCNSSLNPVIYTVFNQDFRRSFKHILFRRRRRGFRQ
T1 sequence (P19328 whole entry): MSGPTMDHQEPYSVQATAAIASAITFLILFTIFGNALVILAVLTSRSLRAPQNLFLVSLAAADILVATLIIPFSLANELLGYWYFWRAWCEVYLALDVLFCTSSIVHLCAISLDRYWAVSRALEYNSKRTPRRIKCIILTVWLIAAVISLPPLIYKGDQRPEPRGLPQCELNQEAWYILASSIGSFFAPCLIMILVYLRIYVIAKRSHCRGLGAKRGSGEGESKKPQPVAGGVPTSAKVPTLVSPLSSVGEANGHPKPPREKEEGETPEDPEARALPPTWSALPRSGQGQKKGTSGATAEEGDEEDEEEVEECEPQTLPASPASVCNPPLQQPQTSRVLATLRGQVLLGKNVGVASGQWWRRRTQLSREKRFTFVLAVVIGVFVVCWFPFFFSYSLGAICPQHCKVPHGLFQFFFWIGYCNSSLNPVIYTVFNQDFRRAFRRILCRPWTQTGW
T1 sequence (P22909 whole entry): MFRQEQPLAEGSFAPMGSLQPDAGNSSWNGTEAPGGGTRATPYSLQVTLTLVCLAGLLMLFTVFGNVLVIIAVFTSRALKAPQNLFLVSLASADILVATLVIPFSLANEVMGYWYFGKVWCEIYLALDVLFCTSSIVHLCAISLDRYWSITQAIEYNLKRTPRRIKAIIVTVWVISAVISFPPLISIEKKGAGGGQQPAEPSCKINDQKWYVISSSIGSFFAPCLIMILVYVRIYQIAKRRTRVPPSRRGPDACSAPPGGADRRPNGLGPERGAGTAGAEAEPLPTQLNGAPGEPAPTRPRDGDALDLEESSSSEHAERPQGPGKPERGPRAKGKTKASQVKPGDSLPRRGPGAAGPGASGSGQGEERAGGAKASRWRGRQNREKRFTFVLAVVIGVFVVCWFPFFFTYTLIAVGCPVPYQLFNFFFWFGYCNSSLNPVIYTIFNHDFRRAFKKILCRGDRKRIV
Assay: Displacement of [3H]clonidine from adrenergic alpha2 receptor in Sprague-Dawley rat cortex membrane
Type: cell membranes

Point of comparison: O=[N+]([O-])c1cccc2c3c(ccc12)CCNC3, Ki 410 nM. Against it:
- Oc1cccc2c3c(ccc12)CCNC3 — 37-fold lower, 11 nM
- COc1cccc2c3c(ccc12)CCNC3 — 2.6-fold lower, 160 nM
- Brc1cccc2c3c(ccc12)CCNC3 — 4.1-fold lower, 100 nM
- NS(=O)(=O)c1cccc2c3c(ccc12)CCNC3 — 7.1-fold higher, 2900 nM
- c1ccc2c3c(ccc2c1)CCNC3 — 26-fold lower, 16 nM
- N#Cc1cccc2c3c(ccc12)CCNC3 — within 1.5-fold, 590 nM

Tested on: not listed separately
Assay: Selectivity for human PNMT over Sprague-Dawley rat adrenergic alpha-2 receptor

c1ccc2c(c1)CCNC2 showed a Ratio Ki of 0.06.
